Data reported in the NIST ThermoML archive (doi:10.1016/j.jct.2004.11.007).
± gives the expanded uncertainty stated by the source.

What was measured:
[1] = for vapor or sublimation pressure: Liquid; for Triple point temperature: Crystal
[2] = Molar enthalpy of transition or fusion; conditions: Crystal; DSC
[3] = Solid-liquid equilibrium temperature; conditions: 100 kPa; Crystal

SMILES	Triple point temperature ([1]; visual observation)	vapor or sublimation pressure ([1]; 373.15 K)	vapor or sublimation pressure ([1]; 333.15 K)	also measured
CC(C)=O [acetone]	–	–	115.7 ± 5.4 kPa	–
CCCCC(C)=O [2-hexanone]	–	43.8 ± 1.8 kPa	–	Triple point temperature [1]: 218.42 ± 2 K; Solid-liquid equilibrium temperature [3]: 215.57 ± 2 K

Second part, led by results:

Triple point temperature ([1]; visual observation)	vapor or sublimation pressure ([1]; 373.15 K)	SMILES	vapor or sublimation pressure ([1]; 333.15 K)	also measured
241.77 ± 0.39 K	–	CCCC(=O)CCC [4-heptanone]	–	–
234.36 ± 0.39 K	95.9 ± 4.9 kPa	CCC(=O)CC [pentan-3-one]	–	–
249.68 ± 0.39 K	3.6 ± 2.6 kPa	CN1CCCC1=O [N-methylpyrrolidone]	0.5 kPa	Molar enthalpy of transition or fusion [2]: 2.64 ± 0.0693 kcal/mol
220.77 ± 0.39 K	–	O=C1CCCC1 [cyclopentanone]	–	–
